Values after ≈ are worked out from the molar mass of the structure shown. Read-outs that look alike come from different tables or passages of the source.
Tests used:
[1] = tested on: Vancomycin resistant E. faecalis NR-31972 (VRE); assay: Antibacterial MIC assay, serial dilution; assay type: cell-based, Enterococcus faecalis; details: for Selectivity index (CC50/MIC) VRE NR-31972: CC50 Vero cells / MIC; for MIC: Enterococcus faecalis, VRE, 24 h, read-out: MIC Vancomycin resistant E. faecalis NR-31972 (VRE)
Method: (§1) Media and solutions were autoclaved or sterile filtered prior to use and mani pulations were carri ed out in a laminar flow hood. Antibacterial t esting was performed in polypropylene 96-well flat bottom plates. The minimal inhibitory concentration of blasticidin S (1) hydrochloride, methyl ester (3) trihydrochloride, P10 (2) tri-T FA , phenet hyl amide (4) tri -T FA , an d blastimidines M 19– 22, A, 29–32, P 37–40, and C 43–46 (salt forms as described in the te xt) were assessed against Staphylococcus aureus ΔNorA, S. aureus ATCC 6538P, methicillin-resistant S. aureus (MRSA) ATCC 43300, Enterococcus faecalis ATCC 29212, vancomycin- resistant Enterococcus, Klebsiella pneumoniae ATCC 29665, Pseudomonas aeruginosa,and Acinetobacter baumannii ATCC 17978 using serial dilutions. Doxycycline (Gold Bio) as a positive control and the vehicle as a negative control. Stock solutions of each compound were prepared at 2.56 mg/mL in 50% DMSO/water and serially diluted in 50% DMSO/water to create master plates. From the master plates, 10 μ L o f each dilution was applied to test plates using a Bravo automated liquid transfer system (Agilent).
(§2) Bacteria previously grown overnight (37 °C, 120–200 RPM), in LB broth were diluted to an OD600 of 0.05 in cation-adjusted Mueller-Hinton broth (CAMHB), grown to an OD600 of ~0.5, and diluted to an OD600 of 0.004 in CAMHB . These diluted cultures were applied to the test plates (190 μL per test well) resulting in final concentrations of the test compounds of 128–1 μg/ m L.
(§3) Growth controls (wells with inoculated media but no vehicle or test compounds) were included to assess any potential toxicity from the vehicle. Th e plates were in cubated at 37 °C for 16–18 h, except fo r VRE and E. faecalis, which w ere in cub ated at 37 °C fo r 24 h. Inh ibition was determined by measuring the optical density at 600 nm (OD60 0) with a Cytation 3 pl ate read er (BioTek). The optical density measurem ents were no rmalized to the positive and negative controls and the vehicle and growth controls were compared and found to b e indistinguishable, indicating no toxicity from […]
(§4) the vehicle used. The MIC was the lowest concentration that inhibited >90% of growth. Two biological replicates were performed in duplicate. MIC values are reported as a range from […]

[2] = tested on: Escherichia coli BAA-2452; assay: Antibacterial MIC assay, serial dilution; assay type: cell-based; details: BAA2452, read-out: MIC Escherichia coli BAA-2452
[3] = tested on: Pseudomonas aeruginosa; assay: Antibacterial MIC assay, serial dilution; assay type: cell-based; details: for Selectivity index (CC50/MIC) P. aeruginosa: CC50 Vero cells / MIC; for MIC: Pseudomonas aeruginosa, range from biological replicates, read-out: MIC P. aeruginosa
Method: as §1, §2, §3, §4

[4] = tested on: Klebsiella pneumoniae ATCC 29665; assay: Antibacterial MIC assay, serial dilution; assay type: cell-based; details: for Selectivity index (CC50/MIC) K. pneumoniae: CC50 Vero cells / MIC; for MIC: Klebsiella pneumoniae, ATCC29665, range from biological replicates, read-out: MIC K. pneumoniae ATCC-29665
Method: as §1, §2, §3, §4

[5] = tested on: Acinetobacter baumannii ATCC 17978; assay: Antibacterial MIC assay, serial dilution; assay type: cell-based; details: ATCC17978, range from biological replicates
Method: as §1, §2, §3, §4

[6] = tested on: Enterococcus faecalis ATCC 29212; assay: Antibacterial MIC assay, serial dilution; assay type: cell-based; details: for Selectivity index (CC50/MIC) E. faecalis 29212: CC50 Vero cells / MIC; for MIC: Enterococcus faecalis, ATCC 29112 / ATCC 29212, 24 h, read-out: MIC E. faecalis ATCC 29112
Method: as §1, §2, §3, §4

[7] = tested on: Vancomycin resistant Enterococcus faecium NR-31909 (VRE); assay: Antibacterial MIC assay, serial dilution; assay type: cell-based; details: for Selectivity index (CC50/MIC) VRE NR-31909: CC50 Vero cells / MIC; for MIC: Enterococcus faecium, VRE, 24 h, read-out: MIC Vancomycin resistant Enterococcus faecium NR-31909 (VRE)
Method: as §1, §2, §3, §4

[8] = tested on: Methicillin resistant Staphylococcus epidermidis (MRSE) ATCC 35984 NRS101; assay: Antibacterial MIC assay, serial dilution; assay type: cell-based; details: for Selectivity index (CC50/MIC) MRSE 35984: CC50 Vero cells / MIC; for MIC: Staphylococcus epidermidis, read-out: MIC Methicillin resistant Staphylococcus epidermidis (MRSE) ATCC 35984 NRS101
[9] = tested on: MRSA ATCC 43300; assay: Antibacterial MIC assay, serial dilution; assay type: cell-based, Staphylococcus aureus; details: for Selectivity index (CC50/MIC) MRSA 43300: CC50 Vero cells / MIC; for MIC: Staphylococcus aureus, read-out: MIC MRSA ATCC 43300
Method: as §1, §2, §3, §4

[10] = tested on: S. aureus ATCC 6538P; assay: Antibacterial MIC assay, serial dilution; assay type: cell-based, Staphylococcus aureus; details: for Selectivity index (CC50/MIC) S. aureus 6538P: CC50 Vero cells / MIC; for MIC: Staphylococcus aureus, ATCC 6538P / ATCC 6539P, read-out: MIC S. aureus ATCC 6539P
Method: as §1, §2, §3, §4

[11] = tested on: S. aureus ΔNorA; assay: Antibacterial MIC assay, serial dilution; assay type: cell-based, Staphylococcus aureus; details: for Selectivity index (CC50/MIC) S. aureus ΔNorA: CC50 Vero cells / MIC; for MIC: Staphylococcus aureus, read-out: MIC S. aureus ∆NorA
Method: as §1, §2, §3, §4

[12] = Cytotoxicity assay (MTS/PMS); assay type: cell-based; details: monkey, 24 h treatment, MTS/PMS, average of three biological replicates, read-out: CC50 against Vero cells
Method: The potential cytotoxic eff ect of the test compounds was investigated using Vero cells (monkey kidney epitheli al cells) following est ablished protocols.3 Briefly, Vero cells were plated into 96-well plates supplemented with Dulbecco's Modified Eagle Medium (DMEM) containing 10% fetal bovine serum (FBS). The cells were placed in a humidified 37 °C environment for incubation with 5% CO₂ for 24 h to allow proper adherence and growth. Following the incubation period, the culture medium was replaced with fresh DMEM containing serial dilutions of the test compounds, while the v ehicle alon e w as used as a negative control. The treated cells were incubated for an additional 24 h. To assess cell viability, the MTS/PMS reagent was added to each well and incubat ed for 4 h. A microplate reader (S ynergy H1, BioTek, USA) was used to m easure absorbance at 490 nm. Al l experiments wer e cond ucted usingthree biologi cal replicates .
Ta b l e S2. CC50 valuesa (µg/mL) against Vero cells […]
aValues at which the cell viability (normalized to vehicle control) was 50%. […]

[13] = tested on: Methicillin resistant S. aureus (MRSA) USA300; assay: Antibacterial MIC assay, serial dilution; assay type: cell-based, Staphylococcus aureus; details: for Selectivity index (CC50/MIC) MRSA USA300: CC50 Vero cells / MIC; for MIC: Staphylococcus aureus, read-out: MIC Methicillin resistant S. aureus (MRSA) USA300
[14] = Vero cells (monkey kidney epithelial cells)

SMILES	Selectivity index (CC50/MIC) VRE NR-31972 [1]	MIC [1]	MIC [2]	Selectivity index (CC50/MIC) P. aeruginosa [3]	MIC [3]	Selectivity index (CC50/MIC) K. pneumoniae [4]	MIC [4]	MIC [5]	Selectivity index (CC50/MIC) E. faecalis 29212 [6]	MIC [6]	Selectivity index (CC50/MIC) VRE NR-31909 [7]	MIC [7]	Selectivity index (CC50/MIC) MRSE 35984 [8]	MIC [8]	Selectivity index (CC50/MIC) MRSA 43300 [9]	MIC [9]	Selectivity index (CC50/MIC) S. aureus 6538P [10]	MIC [10]	Selectivity index (CC50/MIC) S. aureus ΔNorA [11]	MIC [11]	other results
CN(CC[C@H](N)CC(=O)N[C@H]1C=C[C@H](n2ccc(N)nc2=O)O[C@@H]1C(N)=O)C(=N)N [Blastimidine A1, P10, reference compound]	0.1	64 µg/mL (≈ 152 µM)	16 µg/mL (≈ 38 µM)	0.1	64 µg/mL (≈ 152 µM)	0.2	32 µg/mL (≈ 75.9 µM)	32 µg/mL (≈ 75.9 µM)	0.2	32 µg/mL (≈ 75.9 µM)	0.2	32 µg/mL (≈ 75.9 µM)	0.2	32 µg/mL (≈ 75.9 µM)	0.2	32 µg/mL (≈ 75.9 µM)	0.2	32 µg/mL (≈ 75.9 µM)	0.1	128 µg/mL (≈ 304 µM)	CC50 at 24 h [12, 14]: 7 µg/mL (≈ 16.6 µM); Selectivity index (CC50/MIC) MRSA USA300 [13]: 0.4; MIC [13]: 16 µg/mL (≈ 38 µM)
CN(CC[C@H](N)CC(=O)N[C@H]1C=C[C@H](n2ccc(NC(=O)c3ccc(N)cc3)nc2=O)O[C@@H]1C(N)=O)C(=N)N [Blastimidine A2]	0.5	32 µg/mL (≈ 59.2 µM)	16 µg/mL (≈ 29.6 µM)	<0.1	> 128 µg/mL	1.0	16 µg/mL (≈ 29.6 µM)	> 128 µg/mL	1.0	16 µg/mL (≈ 29.6 µM)	1.0	16 µg/mL (≈ 29.6 µM)	0.5	32 µg/mL (≈ 59.2 µM)	1.0	16 µg/mL (≈ 29.6 µM)	1.0	16 µg/mL (≈ 29.6 µM)	0.5	32 µg/mL (≈ 59.2 µM)	CC50 at 24 h [12, 14]: 16 µg/mL (≈ 29.6 µM); Selectivity index (CC50/MIC) MRSA USA300 [13]: 1.0; MIC [13]: 16 µg/mL (≈ 29.6 µM)
CNc1ccc(C(=O)Nc2ccn([C@H]3C=C[C@H](NC(=O)C[C@@H](N)CCN(C)C(=N)N)[C@@H](C(N)=O)O3)c(=O)n2)cc1 [Blastimidine A3]	0.8	32 µg/mL (≈ 57.7 µM)	32 µg/mL (≈ 57.7 µM)	<0.2	> 128 µg/mL	0.8	32 µg/mL (≈ 57.7 µM)	> 128 µg/mL	1.5	16 µg/mL (≈ 28.8 µM)	2.0	8 to 16 µg/mL (≈ 14.4 to 28.8 µM)	1.5	16 µg/mL (≈ 28.8 µM)	1.5	16 µg/mL (≈ 28.8 µM)	2.3	8 to 16 µg/mL (≈ 14.4 to 28.8 µM)	1.5	16 µg/mL (≈ 28.8 µM)	CC50 at 24 h [12, 14]: 24 µg/mL (≈ 43.3 µM); Selectivity index (CC50/MIC) MRSA USA300 [13]: 3.0; MIC [13]: 8 µg/mL (≈ 14.4 µM)
CC(=O)Nc1ccc(C(=O)Nc2ccn([C@H]3C=C[C@H](NC(=O)C[C@@H](N)CCN(C)C(=N)N)[C@@H](C(N)=O)O3)c(=O)n2)cc1 [Blastimidine A4]	1.1	64 µg/mL (≈ 110 µM)	32 µg/mL (≈ 54.9 µM)	<0.5	> 128 µg/mL	3.2	16 to 32 µg/mL (≈ 27.5 to 54.9 µM)	> 128 µg/mL	2.1	32 µg/mL (≈ 54.9 µM)	2.1	32 µg/mL (≈ 54.9 µM)	1.1	64 µg/mL (≈ 110 µM)	1.1	64 µg/mL (≈ 110 µM)	1.1	64 µg/mL (≈ 110 µM)	1.1	64 µg/mL (≈ 110 µM)	CC50 at 24 h [12, 14]: 68 µg/mL (≈ 117 µM); Selectivity index (CC50/MIC) MRSA USA300 [13]: 1.1; MIC [13]: 64 µg/mL (≈ 110 µM)
CN(CC[C@H](N)CC(=O)N[C@H]1C=C[C@H](n2ccc(NC(=O)c3ccc(NC(=O)[C@@](C)(N)CO)cc3)nc2=O)O[C@@H]1C(N)=O)C(=N)N [Blastimidine A5]	<0.5	> 128 µg/mL	32 µg/mL (≈ 49.9 µM)	<0.5	> 128 µg/mL	2.0	32 µg/mL (≈ 49.9 µM)	> 128 µg/mL	1.0	64 µg/mL (≈ 99.7 µM)	2.0	32 µg/mL (≈ 49.9 µM)	0.5	128 µg/mL (≈ 199 µM)	0.5	128 µg/mL (≈ 199 µM)	1.0	64 µg/mL (≈ 99.7 µM)	0.5	128 µg/mL (≈ 199 µM)	CC50 at 24 h [12, 14]: 65 µg/mL (≈ 101 µM); Selectivity index (CC50/MIC) MRSA USA300 [13]: 0.5; MIC [13]: 128 µg/mL (≈ 199 µM)
CN(CC[C@H](N)CC(=O)N[C@H]1C=C[C@H](n2ccc(N)nc2=O)O[C@@H]1C(=O)O)C(=N)N [Blastimidine C1, blasticidin S]	0.1	128 µg/mL (≈ 303 µM)	64 µg/mL (≈ 151 µM)	<0.1	> 128 µg/mL	0.1	128 µg/mL (≈ 303 µM)	> 128 µg/mL	0.6	32 µg/mL (≈ 75.7 µM)	0.1	128 µg/mL (≈ 303 µM)	<0.1	> 128 µg/mL	<0.1	> 128 µg/mL	<0.1	> 128 µg/mL	<0.1	> 128 µg/mL	CC50 at 24 h [12]: 18 µg/mL (≈ 42.6 µM); Selectivity index (CC50/MIC) MRSA USA300 [13]: 0.1; MIC [13]: 128 µg/mL (≈ 303 µM)
